According to patent publication US7094786B2, “Method of treating nausea, vomiting, retching or any combination thereof” (Dynogen Pharmaceuticals, Inc., priority 2003, dated 2006):

Columns and labels:
[1] = system: cisplatin-induced retching and vomiting; assay: Cisplatin-induced emesis in the ferret; type: in vivo, ferret (Mustela putariofuro); settings: for Latency: first emetic event; for Retches (360 min) / Vomits (360 min) / Total Events: male ferrets; for Total Events: 360 min; for Effect on latency of the first emetic response (in words): across doses tested i.p.; for Effect on number of cisplatin-induced emetic events (in words): across doses tested i.p. (ondansetron 5, 10 mg/kg; MCI-225 1, 10, 30 mg/kg)
Procedure: The ability of MCI-225 to reduce retching and vomiting in an accepted model of cytotoxin-induced emesis in the ferret was assessed. Specifically, the experiments described herein investigated the effect of MCI-225 on retching and vomiting induced by cisplatin. Ondansetron was used as a positive control in the model, in view of its known antiemetic activity. Adult male ferrets (Mustela putariofuro) weighing 1200–1880 g were purchased from Triple F Farms (Sayre, Pa.) and housed in individual cages at standardized conditions (12:12 h light/dark cycle and 21–23° C.). Prior to the experiments, the ferrets were allowed a 7–10 day acclimatization period to the animal facility. The ferrets were fed a carnivore diet with free access to food and water throughout the course of the study. The use of the ferret model of emesis and the drug treatment were preapproved in accordance with facility standards. A cisplatin solution was prepared by adding preheated (70° C.) saline to cisplatin powder (Sigma-Aldrich Co.) and stirring or sonicating at 40° C. until dissolved. Following administration of the cisplatin and either MCI-225, ondansetron or vehicle alone, the occurrence of retching and vomiting was monitored for a period of 6 hours. Retching was defined as the number of forceful rhythmic contractions of the abdomen occurring with the animal in characteristic posture, but not resulting in the expulsion of upper gastrointestinal tract contents (Watson et al., British Journal of Pharmacology, 115(1): 84–94 (1994)). Vomiting was defined as the forceful oral expulsion of upper gastrointestinal contents. The latency of the retching or vomiting response and the number of episodes were recorded for each animal and summarized for each experimental group (Wright et al., Infect. Immun., 68(4): 2386–9 (2000)). Following one hour of acclimation to the observation cage, ferrets received an intraperitoneal (i.p.) injection of cisplatin (5 mg/kg in 5 mL) followed in about 2 minutes by i.p. injection of a single dose of MCI-225 or ondansetron (Rudd and Naylor, Eur. J. Pharmacol., 322: 79–82 (1997)). Dose-response effects of MCI-225 dosed at 1, 10 and 30 mg/kg i.p. in a 0.5 ml/kg solution or ondansetron dosed at 5 and 10 mg/kg i.p. in a 0.5 mL/kg solution were studied. Each animal received a single-dose drug treatment. In addition, three animals received an initial dose (30 mg/kg i.p.) and a second MCI-225 injection (30 mg/kg i.p.) 180 minutes following the initial dose. Control animals were treated with cisplatin followed by vehicle alone (propanediol dosed in a 0.5 mL/kg solution). All groups were randomized.

muscarinic receptors = settings: cited from earlier work
5-HT3 receptor = biological target: T1, 5-HT3 receptor (Mus musculus, UniProt P23979); settings: radioligand binding; read-out: Ki, affinity for the 5-HT3 receptor; cited from earlier work
T1 construct: host or cells: N1E-115 mouse neuroblastoma cells
T1 sequence (P23979 24-489): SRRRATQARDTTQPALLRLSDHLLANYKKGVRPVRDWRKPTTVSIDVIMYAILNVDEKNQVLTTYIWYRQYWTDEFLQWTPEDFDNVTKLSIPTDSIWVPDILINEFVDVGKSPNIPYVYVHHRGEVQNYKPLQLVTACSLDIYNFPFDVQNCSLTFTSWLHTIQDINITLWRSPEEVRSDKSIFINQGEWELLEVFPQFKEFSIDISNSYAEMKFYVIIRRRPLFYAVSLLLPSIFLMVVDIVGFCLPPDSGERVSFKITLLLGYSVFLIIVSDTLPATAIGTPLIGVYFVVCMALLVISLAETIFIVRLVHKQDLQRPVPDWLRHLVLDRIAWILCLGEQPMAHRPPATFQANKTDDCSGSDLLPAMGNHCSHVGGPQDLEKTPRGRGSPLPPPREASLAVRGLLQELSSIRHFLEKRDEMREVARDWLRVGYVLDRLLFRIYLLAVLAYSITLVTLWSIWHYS

[2] = system: Monoamine Oxidase-A (MAO-A); settings: cited from earlier work
[3] = system: Monoamine Oxidase-B (MAO-B); settings: cited from earlier work
[4] = system: α1, α2, β1, β2, 5-HT1, 5-HT1A, 5-HT1c, 5-HT2, 5-HT4, 5-HT6, 5-HT7, D1, D2, Muscarinic, M1, M2, M3, Nicotonic, H1, H2, GABA-A, GABA-B, BZP, Opiate, CRF and …; settings: all receptors tested other than 5-HT3; read-out: IC50, radioligand binding to additional receptors; cited from earlier work
[5] = 5 mg/kg i.p. single dose after cisplatin 5 mg/kg i.p.
[6] = 10 mg/kg i.p. single dose after cisplatin 5 mg/kg i.p.

Row | Structure (SMILES) | Latency [1, 5] [min] | Retches (360 min) [1, 5] | Vomits (360 min) [1, 5] | Total Events [1, 5] | Latency [1, 6] [min] | Retches (360 min) [1, 6] | Vomits (360 min) [1, 6] | Total Events [1, 6] | Effect on latency of the first emetic response (in words) [1] | Effect on number of cisplatin-induced emetic events (in words) [1] | Anticholinergic activity (muscarinic receptors) | Ki (5-HT3 receptor) [nM] | Inhibition of MAO-A activity [2] | Latency ([1]; 1 mg/kg i.p. single dose after cisplatin 5 mg/kg i.p.) [min] | Latency ([1]; 30 mg/kg b.i.d i.p. (two doses, 180-min interval) after cisplatin 5 mg/kg i.p.) [min] | Latency ([1]; 30 mg/kg i.p. single dose after cisplatin 5 mg/kg i.p.) [min] | Overall antiemetic efficacy (conclusion) ([1]; similar dose range as ondansetron) | Emetic response (in words) ([1]; two doses of 30 mg/kg, b.i.d at a 180-min interval) | Inhibition of MAO-B activity [3] | IC50 [4] [nM]
1 | Cc1nccn1CC1CCc2c(c3ccccc3n2C)C1=O (centres unmarked) [Ondansetron, ondansetron] | 288 ± 4 | 11.2 ± 7.0 | 0.3 ± 0.2 | 11.5 ± 7.2 | 313 ± 32 | 2.4 ± 1.6 | 0.0 ± 0.0 | 2.4 ± 1.6 | increase in the latency of the first emetic response | dose-dependently reduced the number of emetic events |  |  |  |  |  |  |  |  |  | 
2 | Cc1cc2c(-c3ccccc3F)nc(N3CCNCC3)nc2s1 [MCI-225, 4-(2-fluorophenyl)-6-methyl-2-(1-piperazinyl)thieno[2,3-d]pyrimidine] |  |  |  |  | 192 ± 57 |  |  |  | increase in the latency of the response | dose-dependent reduction in the retches and vomits | substantially no anticholinergic activity | < 100 | did not inhibit | 186 ± 35 | 360 ± 0 | 287 ± 38 | effective at reducing retching and vomiting | eliminated | did not inhibit | > 1000
